The values below come from PubChem BioAssay AID1259407 (Chemical Carcinogenesis Research Information System (CCRIS), 2018).

Calls of active or inactive are those of the source. The rule behind the calls is not given here.

The series deals with CCRIS mutagenicity, Ames/micronucleus/aberration tests. As to the kind of experiment: CCRIS mutagenicity studies.
Setting [1] is: Test System: AMES SALMONELLA TYPHIMURIUM, Strain/Indicator: TA100, Metabolic Activation: NONE, Method: PREINCUBATION
The mark [2] stands for this setting: Test System: AMES SALMONELLA TYPHIMURIUM, Strain/Indicator: TA100, Metabolic Activation: NONE, Method: STANDARD PLATE.
The mark [3] stands for this setting: Test System: AMES SALMONELLA TYPHIMURIUM, Strain/Indicator: TA100, Metabolic Activation: RAT, LIVER, S-9, AROCLOR 1254, Method: PREINCUBATION
The mark [4] stands for this setting: Test System: AMES SALMONELLA TYPHIMURIUM, Strain/Indicator: TA98, Metabolic Activation: NONE, Method: STANDARD PLATE.

Turning to `C=CC(O)CO` (stereo not drawn), the mutagenic call reads like this: (Test System: Mouse splenic T lymphocytes in vivo, Strain/Indicator: B6C3F1 females (HPRT)/6-Thioguanine, Metabolic Activation: None, Method: Inhalation at 0, 6, 18, 36 ppm 6 hr/day for 4 wks (sacrifice 2-8 wks post exposure)) “active; positive (especially at 5.5-6 wk after last exposure)”; (Test System: Mouse splenic T lymphocytes in vivo, Strain/Indicator: B6C3F1 males (HPRT)/6-Thioguanine, Metabolic Activation: None, Method: Inhalation at 0, 6, 18, 36 ppm 6 hr/day for 4 wks (sacrifice 2-8 wks post exposure)) “active; positive (especially at 5.5-6 wk after last exposure)”; (Test System: Rat splenic T lymphocytes in vivo, Strain/Indicator: F344 females (HPRT)/6-Thioguanine, Metabolic Activation: None, Method: Inhalation at 0, 36 ppm 6 hr/day for 4 wks (sacrifice 2-8 wks post exposure)) “active; positive (at 5-6 wks)”.

As to `COc1ccc2oc3cc(O)cc(O)c3c(=O)c2c1`, the mutagenic call is, setting by setting: (Test System: AMES SALMONELLA TYPHIMURIUM, Strain/Indicator: TA97, Metabolic Activation: RAT, LIVER, S-9, PHENOBARBITAL AND 5,6-BENZOFLAVONE, Method: PREINCUBATION) “active; positive”; (Test System: AMES SALMONELLA TYPHIMURIUM, Strain/Indicator: TA98, Metabolic Activation: RAT, LIVER, S-9, PHENOBARBITAL AND 5,6-BENZOFLAVONE, Method: PREINCUBATION) “active; positive”; (Test System: AMES SALMONELLA TYPHIMURIUM, Strain/Indicator: TA100, Metabolic Activation: RAT, LIVER, S-9, PHENOBARBITAL AND 5,6-BENZOFLAVONE, Method: PREINCUBATION) “active; positive”; (Test System: AMES SALMONELLA TYPHIMURIUM, Strain/Indicator: TA2637, Metabolic Activation: RAT, LIVER, S-9, PHENOBARBITAL AND 5,6-BENZOFLAVONE, Method: PREINCUBATION) “active; positive”.

Consider `O=c1nc(O)n(Cl)c(=O)n1Cl`, for which the mutagenic call reads like this: (Test System: AMES SALMONELLA TYPHIMURIUM, Strain/Indicator: TA98, Metabolic Activation: HAMSTER, LIVER, S-9, AROCLOR 1254 (10%), Method: PREINCUBATION) “inactive; negative”; (Test System: AMES SALMONELLA TYPHIMURIUM, Strain/Indicator: TA98, Metabolic Activation: NONE, Method: PREINCUBATION) “inactive; negative”; (Test System: AMES SALMONELLA TYPHIMURIUM, Strain/Indicator: TA98, Metabolic Activation: RAT, LIVER, S-9, AROCLOR 1254 (10%), Method: PREINCUBATION) “inactive; negative”; (Test System: AMES SALMONELLA TYPHIMURIUM, Strain/Indicator: TA100, Metabolic Activation: HAMSTER, LIVER, S-9, AROCLOR 1254 (10%), Method: PREINCUBATION) “inactive; negative”; under setting [1], “inactive; negative”; (Test System: AMES SALMONELLA TYPHIMURIUM, Strain/Indicator: TA100, Metabolic Activation: RAT, LIVER, S-9, AROCLOR 1254 (10%), Method: PREINCUBATION) “inactive; negative”. Moreover, the mutagenic call is, setting by setting: (Test System: AMES SALMONELLA TYPHIMURIUM, Strain/Indicator: TA1535, Metabolic Activation: HAMSTER, LIVER, S-9, AROCLOR 1254 (10%), Method: PREINCUBATION) “inactive; negative”; (Test System: AMES SALMONELLA TYPHIMURIUM, Strain/Indicator: TA1535, Metabolic Activation: NONE, Method: PREINCUBATION) “inactive; negative”; (Test System: AMES SALMONELLA TYPHIMURIUM, Strain/Indicator: TA1535, Metabolic Activation: RAT, LIVER, S-9, AROCLOR 1254 (10%), Method: PREINCUBATION) “inactive; negative”; (Test System: AMES SALMONELLA TYPHIMURIUM, Strain/Indicator: TA1537, Metabolic Activation: HAMSTER, LIVER, S-9, AROCLOR 1254 (10%), Method: PREINCUBATION) “inactive; negative”; (Test System: AMES SALMONELLA TYPHIMURIUM, Strain/Indicator: TA1537, Metabolic Activation: NONE, Method: PREINCUBATION) “inactive; negative”; (Test System: AMES SALMONELLA TYPHIMURIUM, Strain/Indicator: TA1537, Metabolic Activation: RAT, LIVER, S-9, AROCLOR 1254 (10%), Method: PREINCUBATION) “inactive; negative”.

For `O=[N+]([O-])c1ccc2ccc3nc4ccccc4c4ccc1c2c34`, the mutagenic call was “active; positive” (Test System: AMES SALMONELLA TYPHIMURIUM, Strain/Indicator: TA98(1,8-DNP6), Metabolic Activation: NONE); “active; positive” (Test System: AMES SALMONELLA TYPHIMURIUM, Strain/Indicator: TA98(NR), Metabolic Activation: NONE); “active; positive” (Test System: AMES SALMONELLA TYPHIMURIUM, Strain/Indicator: TA98, Metabolic Activation: NONE).

Regarding `CCCOS(C)(=O)=O`, the mutagenic call reads like this: (End Point: IN VITRO MICRONUCLEUS, Test System: MOUSE LYMPHOMA L5178Y CELLS, Metabolic Activation: NONE) “active; positive”; (End Point: IN VITRO MICRONUCLEUS, Test System: MOUSE LYMPHOMA L5178Y CELLS, Metabolic Activation: RAT, LIVER, S-9) “inactive; negative; authors report results as weakly positive”; (End Point: In vitro micronucleus, Test System: Chinese Hamster Ovary (CHO-WBL) cells, Metabolic Activation: None) “active; positive (p<0.01)”; under setting [2], “active; positive”; (Test System: AMES SALMONELLA TYPHIMURIUM, Strain/Indicator: TA100, Metabolic Activation: RAT, LIVER, S-9, Method: STANDARD PLATE) “active; positive”.

Turning to `CC1(C)SC2[C@H](NC(=O)C(N)c3ccccc3)C(=O)N2[C@H]1C(=O)O.[Cl][Pt].[H+]` (stereo partly drawn), the mutagenic call (Test System: MOUSE LYMPHOMA, Strain/Indicator: L5178Y(LY-R) (HGPRT)/6-THIOGUANINE, Metabolic Activation: NONE) was “inactive; negative”.

For `CNc1ccc(O)c2c1C(=O)c1c(O)ccc(NC)c1C2=O`, the mutagenic call is, setting by setting: (Test System: Ames Salmonella typhimurium, Strain/Indicator: TA98, Metabolic Activation: None, Method: Preincubation) “active; positive”; (Test System: Ames Salmonella typhimurium, Strain/Indicator: TA100, Metabolic Activation: None, Method: Preincubation) “active; positive”; (Test System: Ames Salmonella typhimurium, Strain/Indicator: TA102, Metabolic Activation: None, Method: Preincubation) “inactive; negative”; (Test System: Ames Salmonella typhimurium, Strain/Indicator: TA1535, Metabolic Activation: None, Method: Preincubation) “active; positive”.

For `C=C(Cl)C#N`, the mutagenic call reads like this: under setting [1], “inactive; negative”; under setting [3], “inactive; negative”.

On to `CCC(=O)C1c2cccc(O)c2C(=O)c2c(O)cccc21`, for which the mutagenic call (Test System: AMES SALMONELLA TYPHIMURIUM, Strain/Indicator: TA1537, Metabolic Activation: NONE, Method: STANDARD PLATE) was “active; positive”; the mutagenic call (Test System: AMES SALMONELLA TYPHIMURIUM, Strain/Indicator: TA1537, Metabolic Activation: RAT, LIVER, S-9, PHENOBARBITAL AND BETA-NAPHTHOFLAVONE, Method: STANDARD PLATE) is “active; positive”; the mutagenic call (Test System: E. COLI, Strain/Indicator: WP2, Metabolic Activation: NONE, Method: STANDARD PLATE) was “inactive; negative”; the mutagenic call (Test System: E. COLI, Strain/Indicator: WP2, Metabolic Activation: RAT, LIVER, S-9, AROCLOR 1254, Method: STANDARD PLATE) is “inactive; negative”; the mutagenic call (Test System: E. COLI, Strain/Indicator: WP2 UVRA, Metabolic Activation: NONE, Method: STANDARD PLATE) is “inactive; negative”; the mutagenic call (Test System: E. COLI, Strain/Indicator: WP2 UVRA, Metabolic Activation: RAT, LIVER, S-9, AROCLOR 1254, Method: STANDARD PLATE) is “inactive; negative”.

In the case of `Oc1ccc2c3ccccc3c3cc4ccccc4cc3c2c1O`, the mutagenic call under setting [3] was “active; positive”.

As to `C=C(C)C(=O)/C(=C\C(=O)O)OC`, the mutagenic call is “inactive; negative” under setting [4]; “inactive; negative” (Test System: AMES SALMONELLA TYPHIMURIUM, Strain/Indicator: TA98, Metabolic Activation: RAT LIVER S-9, DELOREM 103, Method: STANDARD PLATE); “inactive; negative” (Test System: AMES SALMONELLA TYPHIMURIUM, Strain/Indicator: TA98, Metabolic Activation: RAT, LIVER, MICROSOMES, PHENOBARBITAL, Method: STANDARD PLATE); “inactive; negative” under setting [1]; “inactive; negative” under setting [2]; “inactive; negative” (Test System: AMES SALMONELLA TYPHIMURIUM, Strain/Indicator: TA100, Metabolic Activation: RAT LIVER S-9, DELOREM 103, Method: STANDARD PLATE). The mutagenic call (Test System: AMES SALMONELLA TYPHIMURIUM, Strain/Indicator: TA100, Metabolic Activation: RAT, LIVER, MICROSOMES, PHENOBARBITAL, Method: STANDARD PLATE) was “inactive; negative” and the mutagenic call (Test System: AMES SALMONELLA TYPHIMURIUM, Strain/Indicator: TA100, Metabolic Activation: RAT, LIVER, S-9, PHENOBARBITAL, Method: PREINCUBATION) was “inactive; negative”.

As for `O=[N+]([O-])c1c(Cl)cc2c(c1Cl)Oc1cc(Cl)c(Cl)cc1O2`, the mutagenic call reads like this: under setting [4], “inactive; negative”; (Test System: AMES SALMONELLA TYPHIMURIUM, Strain/Indicator: TA98, Metabolic Activation: RAT, LIVER, S-9, AROCLOR, Method: STANDARD PLATE) “inactive; negative”; under setting [2], “inactive; negative”; (Test System: AMES SALMONELLA TYPHIMURIUM, Strain/Indicator: TA100, Metabolic Activation: RAT, LIVER, S-9, AROCLOR, Method: STANDARD PLATE) “inactive; negative”.
